# US7767679B2, “Sulfonylamino-derivatives as novel inhibitors of histone deacetylase” (Janssen Pharmaceutica N.V., priority 2002, dated 2010)
# Read-outs that look alike come from different tables or passages of the source.
# Legend:
# [1] = tested on: A2780 ovarian carcinoma cells; assay: Antiproliferative activity on A2780 cells (MTT); assay type: cell-based; conditions: Homo sapiens, 96 h, four days of incubation, read-out: Cellular activity pIC50 (converted)
# Experimental: Cellular activity of the compounds of formula (I) was determined on A2780 tumour cells using a colorimetric assay for cell toxicity or survival (Mosmann Tim, Journal of Immunological Methods 65: 55-63, 1983)(see example C.2).
# All compounds tested were dissolved in DMSO and further dilutions were made in culture medium. Final DMSO concentrations never exceeded 0.1% (v/v) in cell proliferation assays. Controls contained A2780 cells and DMSO without compound and blanks contained DMSO but no cells. MTT was dissolved at 5 mg/ml in PBS. A glycine buffer comprised of 0.1 M glycine and 0.1 M NaCl buffered to pH 10.5 with NaOH (1 N) was prepared (all reagents were from Merck).
# The human A2780 ovarian carcinoma cells (a kind gift from Dr. T. C. Hamilton [Fox Chase Cancer Centre, Pennsylvania, USA]) were cultured in RPMI 1640 medium supplemented with 2 mM L-glutamine, 50 μg/ml gentamicin and 10% fetal calf serum. Cells were routinely kept as monolayer cultures at 37° C. in a humidified 5% CO2 atmosphere. Cells were passaged once a week using a trypsin/EDTA solution at a split ratio of 1:40. All media and supplements were obtained from Life Technologies. Cells were free of mycoplasma contamination as determined using the Gen-Probe Mycoplasma Tissue Culture kit (supplier: BioMérieux).
# Cells were seeded in NUNC™ 96-well culture plates (Supplier: Life Technologies) and allowed to adhere to the plastic overnight. Densities used for plating were 1500 cells per well in a total volume of 200 μl medium. After cell adhesion to the plates, medium was changed and drugs and/or solvents were added to a final volume of 200 μl. Following four days of incubation, medium was replaced by 200 μl fresh medium and cell density and viability was assessed using an […] assay. To each well, 25 μl μl MTT solution was added and the cells were further incubated for 2 hours at 37° C. The medium was then carefully aspirated and the blue MT-formazan product was solubilized by addition of 25 μl glycine buffer followed by 100 μl of DMSO. […] Within an experiment, the results for each experimental condition are the mean of 3 replicate wells. For initial screening purposes, compounds were tested at a single fixed concentration of 10^−6 M. For active compounds, the experiments were repeated to establish full concentration-response curves. For each experiment, controls (containing no drug) and a blank incubation (containing no cells or drugs) were run in parallel. The blank value was subtracted from all control and sample values. For each sample, the mean value for cell growth (in absorbance units) was expressed as a percentage of the mean value for cell growth of the control. […] Herein the effects of test compounds are expressed as pIC50 (the negative log value of the IC50-value).
# [2] = Kinetic solubility in aqueous media; assay type: physicochemical; conditions: aqueous buffer, kinetic from dmso stock; phosphate citrate buffer pH 7.4, turbidity by nephelometer; read-out: Solubility Score
# Experimental: Kinetic solubility in aqueous media measures the ability of a compound to stay in aqueous solution upon dilution (see example C.3).
# DMSO-stock solutions are diluted with a single aqueous buffer solvent in 3 consecutive steps. For every dilution turbidity is measured with a nephelometer.
# In the first dilution step, 10 μl of a concentrated stock-solution of the active compound, solubilized in DMSO (5 mM), was added to 100 μl phosphate citrate buffer pH 7.4 and mixed. In the second dilution step, an aliquot (20 μl) of the first dilution step was further dispensed in 100 μl phosphate citrate buffer pH 7.4 and mixed. Finally, in the third dilution step, a sample (20 μl) of the second dilution step was further diluted in 100 μl phosphate citrate buffer pH 7.4 and mixed. All dilutions were performed in 96-well plates. Immediately after the last dilution step the turbidity of the three consecutive dilution steps were measured with a nephelometer. Dilution was done in triplicate for each compound to exclude occasional errors. Based on the turbidity measurements a ranking is performed into 3 classes. Compounds with high solubility obtained a score of 3 and for this compounds the first dilution is clear. Compounds with medium solubility obtained a score of 2. For these compounds the first dilution is unclear and the second dilution is clear. […] The solubility of 9 compounds was measured.
# [3] = biological target: histone deacetylase (HeLa nuclear extracts); assay: In vitro assay for inhibition of histone deacetylase; assay type: biochemical; conditions: HeLa nuclear extracts 60 μg/ml, [3H]acetylated histone H4 peptide substrate, 30 min
# Experimental: The in vitro assay for inhibition of histone deacetylase (see example C.1) measures the inhibition of HDAC enzymatic activity obtained with the compounds of formula (I).
# HeLa nuclear extracts (supplier: Biomol) were incubated at 60 μg/ml with 2×10^−8 M of radiolabeled peptide substrate. As a substrate for measuring HDAC activity a synthetic peptide, i.e. the amino acids 14-21 of histone H4, was used. The substrate is biotinylated at the NH2-terminal part with a 6-aminohexanoic acid spacer, and is protected at the COOH-terminal part by an amide group and specifically [^3H]acetylated at lysine 16. The substrate, biotin-(6-aminohexanoic)Gly-Ala-([^3H]-acetyl-Lys-Arg-His-Arg-Lys-Val-NH2), was added in a buffer containing 25 mM Hepes, 1 M sucrose, 0.1 mg/ml BSA and 0.01% Triton X-100 at pH 7.4. After 30 min the deacetylation reaction was terminated by the addition of HCl and acetic acid. (final concentration […] respectively). After stopping the reaction, the free ^3H-acetate was extracted with ethylacetate. After mixing and centrifugation, the radioactivity in an aliquot of the upper (organic) phase was counted in β-counter.
# For each experiment, controls (containing HeLa nuclear extract and DMSO without compound), a blank incubation (containing DMSO but no HeLa nuclear extract or compound) and samples (containing compound dissolved in DMSO and HeLa nuclear extract) were run in parallel. In first instance, compounds were tested at a concentration of 10^−5M. […] In each test the blank value was substracted from both the control and the sample values. The control sample represented 100% of substrate deactylation. For each sample the radioactivity was expressed as a percentage of the mean value of the controls. […] Herein the effects of test compounds are expressed as pIC50 (the negative log value of the IC50-value).
# [4] = not given; remark: listed apart in the source
IC50 [1],melting point,solubility [2],Enzyme activity pIC50 [3],"% metabolism ([4]; human, 15 min, 5 μM)",Structure (SMILES),"% metabolism ([4]; 15 min incubation with active microsomes (1 mg/ml), compound 5 μM)"
27.1 nM,200 °C,> 455 µM,6.104,–,O=C(NO)c1cnc(N2CCC(NS(=O)(=O)c3ccc4ccccc4c3)CC2)nc1 [Co. No. 2],–
1240 nM,–,< 76 µM,7.413,–,O=C(NO)c1ccc(N2CCC(NS(=O)(=O)c3ccc(-c4ccccc4)cc3)CC2)nc1 [compound 15],–
> 10000 nM,228 °C,76 to 455 µM,7.579,–,O=C(NO)c1cnc(N2CCC(O)(CNS(=O)(=O)c3ccc4ccccc4c3)CC2)nc1 [Co. No. 9],–
–,–,–,–,45%,COc1cc(N)c(Cl)cc1C(=O)NC1CCN(CCCOc2ccc(F)cc2)CC1OC (stereo not shown) [Cisapride],–
–,–,–,–,–,CCCO [propanol],25%
369 nM,–,< 76 µM,8.123,–,O=C(NO)c1cnc(N2CCC(CNS(=O)(=O)c3ccc4ccccc4c3)CC2)nc1 [Co. No. 5],–
9620 nM,203 °C,> 455 µM,7.533,–,O=C(NO)c1cnc(N2CC[C@H](NS(=O)(=O)c3ccc4ccccc4c3)[C@H](CO)C2)nc1 [Co. No. 7],–
1360 nM,173 °C,< 76 µM,7.574,–,O=C(NO)c1ccc(N2CCC(CNS(=O)(=O)c3ccc4ccccc4c3)CC2)nc1 [Co. No. 4],–
3040 nM,224 °C,> 455 µM,7.355,–,O=C(NO)c1cnc(N2CC[C@H](CNS(=O)(=O)c3ccc4ccccc4c3)[C@H](O)C2)nc1 [Co. No. 8],–
